Source: patent publication US8722582B2, “Thermodynamically stable crystal modification of 2-({2-chloro-4-(methylsulfonyl)-3-[(2,2,2-trifluoroethoxy)methyl]phenyl} carbonyl)cyclohexane-1,3-dione” (Bayer Cropscience AG, priority 2007, dated 2014)

How the values were obtained:
[1] = Stability test: storage of an oil dispersion; assay type: physicochemical; conditions: oil dispersion of tembotrione; after several weeks of storage; compared to oil dispersion of crystal modification II, III or a mixture thereof
[2] = Tests in practice of suspension formulations; assay type: physicochemical; conditions: tembotrione finely ground in solid form, spontaneously or over a relatively long period of time
Text: Tembotrione, which is known, for example, from WO 00/21924 (example No. 3 in table 1), has herbicidal properties and is suitable for preparing crop protection compositions used for weed control. […] User-friendly presentation forms are, for example, suspension formulations in which tembotrione is present finely ground in solid form. […] The crystal growth may occur spontaneously or over a relatively long period of time and is unpredictable.

| Structure (SMILES) | signs of agglomeration and precipitation on storage [1] | crystal growth, agglomeration and precipitation in suspension formulation [2] |
| --- | --- | --- |
| CS(=O)(=O)c1ccc(C(=O)C2C(=O)CCCC2=O)c(Cl)c1COCC(F)(F)F [crystal modification I, 2-({2-chloro-4-(methylsulfonyl)-3-[(2,2,2-trifluoroethoxy)methyl]phenyl}carbonyl)cyclohexan-1,3-dione] | no signs of agglomeration and precipitation | – |
| CS(=O)(=O)c1ccc(C(=O)C2C(=O)CCCC2=O)c(Cl)c1COCC(F)(F)F [tembotrione, 2-({2-chloro-4-(methylsulfonyl)-3-[(2,2,2-trifluoroethoxy)methyl]phenyl}carbonyl)cyclohexan-1,3-dione] | – | leads to crystal growth and, as a consequence thereof, to agglomeration and precipitation |
